The values below come from patent US20050026235A1 (priority 2003, published 2005).

In one series the target is PLA2 (Apis mellifera, UniProt P00630). Conditions: pH 8.
The target in series [1] is Clostridium perfringens PLC (Clostridium perfringens, UniProt P0C216).
For series [2] the following is noted: literature values (Cevc 1993; Adrian et al. 1992); cited from earlier work.
For the next series, the target named is PLA2 from bee venom (Apis mellifera, UniProt P00630).
Sequence of PLA2 from bee venom (P00630 34-167 limits assumed): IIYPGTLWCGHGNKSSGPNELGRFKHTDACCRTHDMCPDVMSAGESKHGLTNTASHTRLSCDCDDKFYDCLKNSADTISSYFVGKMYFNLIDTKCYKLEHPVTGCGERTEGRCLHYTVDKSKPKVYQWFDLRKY

Sequence of PLA2 (P00630 34-167 limits assumed): as above
Sequence of Clostridium perfringens PLC (P0C216 29-398 limits assumed): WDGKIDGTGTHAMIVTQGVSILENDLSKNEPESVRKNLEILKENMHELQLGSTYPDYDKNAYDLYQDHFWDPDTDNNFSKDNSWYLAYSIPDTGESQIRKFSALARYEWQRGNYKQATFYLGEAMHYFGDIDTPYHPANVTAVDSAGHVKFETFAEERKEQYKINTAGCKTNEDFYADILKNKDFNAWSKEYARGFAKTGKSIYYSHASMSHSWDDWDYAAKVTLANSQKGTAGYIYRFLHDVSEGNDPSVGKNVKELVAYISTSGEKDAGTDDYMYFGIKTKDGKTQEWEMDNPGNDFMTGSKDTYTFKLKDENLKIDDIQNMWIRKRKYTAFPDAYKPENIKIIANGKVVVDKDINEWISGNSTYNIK

Regarding “1,2-dimyristoyl-sn-glycero-3-phosphoethanolamine-N-(Oregon Green 500, 5-isomer) [compound 84]”, on PLA2, the “time until all substrate converted to polar product” value is given as “about 30 min”.

On to “1,2-dioleoyl-sn-glycero-3-phosphoethanolamine-N-(Oregon Green® 488, 5-isomer) [compound 60]”, for which the cleavage activity entry in series [1] is recorded as “no activity was observed”.

With `CCCCCCCCCCCCCC(=O)OC[C@H](COP(=O)([O-])OCC[N+](C)(C)C)OC(=O)CCCCCCCCCCCCC` [DMPC], the CMC entry in series [2] was “about 4 nM”.

Turning to `CCCCCCCCCCCCCC(=O)OC[C@H](COP(=O)(O)OC[C@H](N)C(=O)O)OC(=O)CCCCCCCCCCCCC` [DMPS], the CMC result in series [2] is reported as “about 60 nM”.

The IC50 is the midpoint of a concentration-inhibition curve. Low readings indicate inhibition by little substance, high ones a need for much substance. Take `CCCCCCCCCCCCCCCCOCC(COCC(F)(F)F)OP(=O)(O)OC` (centres unmarked) [inhibitor 122]: the IC50 against PLA2 from bee venom is about 2000 nM.
